Experimental data as given in patent US20110184025A1, “Methods and Compositions Using Immunomodulatory Compounds for the Treatment and Management of Spirochete and Other Obligate Intracellular Bacterial Diseases” (priority 2006, published 2011).

Legend:
IFN-γ = assay: Augmentation of IFN-γ production following TCR activation of T-cells; format: cell-based
IL-10 = assay: LPS-stimulated production of IL-10 by PBMC; format: cell-based
IL-2 = assay: Augmentation of IL-2 production following TCR activation of PBMC; format: cell-based
T-cells = assay: Stimulation of T-cell proliferation following primary induction by TCR activation; format: cell-based
Beagle dogs = assay: Cardiovascular and respiratory function in anesthetized dogs; details: anesthetized Beagle dogs, 2, 10 and 20 mg/kg infusion via jugular vein, all doses
[1] = Form A: among anhydrous polymorphs; Form E: in aqueous solvent systems; cited from earlier work

Nc1cccc2c1CN(C1CCC(=O)NC1=O)C2=O (stereo not shown)
Potency relative to thalidomide in augmenting production of IFN-γ (IFN-γ): 50-100 times
Effect on production of IL-10 by PBMC (IL-10): increased production
Potency relative to thalidomide in augmenting production of IL-2 (IL-2): 50-100 times
Potency relative to thalidomide in stimulating proliferation of T-cells (T-cells): 50-100 times
Cardiovascular and respiratory changes compared to vehicle control (Beagle dogs): minimal

Nc1cccc2c1CN(C1CCC(=O)NC1=O)C2=O (stereo not shown) [Form A, 3-(4-amino-1-oxo-1,3 dihydro-isoindol-2-yl)-piperidene-2,6-dione]
Relative stability of polymorph [1]: most thermodynamically stable anhydrous polymorph

Nc1cccc2c1CN(C1CCC(=O)NC1=O)C2=O (stereo not shown) [Form E, 3-(4-amino-1-oxo-1,3 dihydro-isoindol-2-yl)-piperidene-2,6-dione]
Relative stability of polymorph [1]: most stable form
